Here are results for four compounds from publication PMC8913687, “Novel indolic AMPK modulators induce vasodilatation through activation of the AMPK–eNOS–NO pathway” (Scientific Reports, 2022).

Where two headings read alike, the source gives them in different places.

Broadly, the Ki is the dissociation constant of the complex between target and ligand, obtained from inhibition or displacement. Higher therefore signals weaker binding.

Test [1] concerns the target T1, AMPKα1β1γ1 (Homo sapiens, UniProt Q13131+Q9Y478).
T1 construct: gene PRKAA1; recombinant AMPK isoform α1β1γ1; with AMPK β1 (PRKAB1) and γ1 (PRKAG1)
Kind of test: ADP-Glo kinase assay with SAMS peptide, Lineweaver-Burk kinetics vs ATP; binding also shown by SPR ([…] RU at […]). The class given is biochemical.

Test [2] concerns the target T1, AMPKα1β1γ1. Put plainly: SPR at […]; also […] inhibition at […] in ADP-Glo kinase assay. The class given is binding. A general note: ADP-Glo first removes unused ATP, then detects ADP through luciferase.
Test [3] has as its target T1, AMPKα1β1γ1. Put plainly: SPR, […] series and competition with […] ATP. Type of test: binding. (In SPR one partner is held on a chip, and binding of the other changes the refractive index at the surface.)
Test [4] has as its target T1, AMPKα1β1γ1. Put plainly: SPR at […]; also […] inhibition at […] in ADP-Glo kinase assay. Type of test: binding. The source holds these as a separate data set.

T1 sequence (Q13131 whole entry, canonical isoform): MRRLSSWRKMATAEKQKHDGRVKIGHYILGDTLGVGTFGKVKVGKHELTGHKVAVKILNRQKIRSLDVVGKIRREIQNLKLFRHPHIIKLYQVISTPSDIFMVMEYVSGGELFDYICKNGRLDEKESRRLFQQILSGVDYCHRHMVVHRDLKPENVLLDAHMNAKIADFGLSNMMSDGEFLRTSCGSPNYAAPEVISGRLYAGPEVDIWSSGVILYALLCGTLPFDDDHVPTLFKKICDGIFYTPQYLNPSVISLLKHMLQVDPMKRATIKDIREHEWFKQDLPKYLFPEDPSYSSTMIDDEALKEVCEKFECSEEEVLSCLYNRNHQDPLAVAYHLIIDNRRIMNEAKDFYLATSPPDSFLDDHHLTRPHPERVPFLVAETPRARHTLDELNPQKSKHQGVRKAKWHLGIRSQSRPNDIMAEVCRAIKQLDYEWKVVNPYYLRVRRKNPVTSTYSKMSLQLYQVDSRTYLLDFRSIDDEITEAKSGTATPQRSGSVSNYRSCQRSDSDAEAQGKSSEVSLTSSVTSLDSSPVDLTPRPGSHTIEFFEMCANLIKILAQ
T1 sequence (Q9Y478 2-270): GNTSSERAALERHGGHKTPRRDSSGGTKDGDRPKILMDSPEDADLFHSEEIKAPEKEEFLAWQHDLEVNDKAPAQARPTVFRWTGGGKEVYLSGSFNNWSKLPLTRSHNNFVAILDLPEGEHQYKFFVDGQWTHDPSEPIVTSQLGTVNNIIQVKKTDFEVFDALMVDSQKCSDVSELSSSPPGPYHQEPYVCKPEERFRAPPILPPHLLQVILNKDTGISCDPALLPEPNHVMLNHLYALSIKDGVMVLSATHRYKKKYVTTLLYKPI
T1 sequence (P54619 whole entry partner, canonical isoform): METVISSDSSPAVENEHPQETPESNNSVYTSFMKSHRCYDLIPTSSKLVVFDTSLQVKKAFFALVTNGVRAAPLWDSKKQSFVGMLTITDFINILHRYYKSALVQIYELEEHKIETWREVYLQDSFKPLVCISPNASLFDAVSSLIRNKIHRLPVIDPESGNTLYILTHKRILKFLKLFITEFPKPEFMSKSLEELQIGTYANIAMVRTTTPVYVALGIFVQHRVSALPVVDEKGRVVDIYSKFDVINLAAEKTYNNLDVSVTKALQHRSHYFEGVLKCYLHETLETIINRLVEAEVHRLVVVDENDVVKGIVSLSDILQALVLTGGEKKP

In the case of `O=C(O)c1[nH]c2ccccc2c1-c1ccc(OCc2ccccc2)cc1` [IND6, 3-(4-(Benzyloxy)phenyl)-1H-indole-2-carboxylic acid], the affinity at AMPKα1β1γ1 [1], expressed as Ki, was 6.9 µM.

On to `O=C(O)c1[nH]c2ccccc2c1-c1ccc(-c2ccccc2)cc1` [IND7], for which the “Binding 100 μM (RU)^b / AMPK α1:β1:γ1” value at AMPKα1β1γ1 [2] was 13.6 RU. As to `CNC(=O)c1ccccc1Oc1nc(Nc2cc(OC)c(OC)c(OC)c2)ncc1Br` [SBI-0206965], the “SPR, 10-100 μM series and competition with 200 μM ATP” value on AMPKα1β1γ1 [3] is “sensorgrams showed a progressive increase in the binding, which was much larger for SBI-0206965”. On to `O=C(O)c1[nH]c2ccccc2c1-c1ccc(Oc2ccccc2)cc1` [IND8], for which the “Binding 100 μM (RU)^b / AMPK α1:β1:γ1” value on AMPKα1β1γ1 [4] turned out to be 14.6 RU.
